Values after ≈ are worked out from the molar mass of the structure shown. Read-outs that look alike come from different tables or passages of the source.
Key:
[1] = test system: BALB/c mouse spleen cells; assay: Lymphocytotoxicity test (MTT); format: cell-based; conditions: 48 hours
Description: (§1) A. Lymphocytotoxicity Test
(§2) 1. BALB/c mice were killed by cervical dislocation, and their spleens were removed aseptically. A single spleen cell suspension was prepared and cell debris and clumps were removed.
(§3) 2. 80 μL cell suspension, 40 μL testing sample, 40 μL medium containing 10% FBS were added into 96 well plate; for the control group, 80 μL medium was added the total volume was 160 μL, and blank control group was set.
(§4) 3. After incubated in 5% CO2 incubator at 37° C. for 48 hours, 16 μL MTT (5 mg/mL) reagent was added into each well 6-7 hours before the termination of the incubation.

T lymphocyte = assay: Lymphocyte proliferation test, T lymphocyte proliferation response induced by ConA ([3H]-thymidine); format: cell-based, mouse; conditions: 48 hours
Description: B. Lymphocyte Proliferation Test […] […] 3. After incubated in 5% CO2 incubator at 37° C. for 48 hours, 0.5 μCi [^3H]-thymidine (25 μL/well) was added into each well 7-8 hours before the termination of the incubation. 4.

B lymphocyte = assay: Lymphocyte proliferation test, B lymphocyte proliferation response induced by LPS ([3H]-thymidine); format: cell-based, mouse; conditions: 48 hours
Description: 3. After incubated in 5% CO2 incubator at 37° C. for 48 hours, 0.5 μCi [^3H]-thymidine (25 μL/well) was added into each well 7-8 hours before the termination of the incubation. 4.

[2] = test system: BALB/c mouse spleen cells and C57BL/6 mouse spleen cells
Description: C. Mixed Lymphocyte Reaction (MLR)
1. C57BL/6 and BALB/c mice were killed by cervical dislocation, their spleens were removed aseptically, and a single spleen cell suspension was prepared. After the red blood cells were removed, the cell concentration was adjusted to 4×10^6/mL with RPMI-1640 medium containing 10% FBS.
2. The spleen cells of C57BL/6 mice were response cells, and the spleen cells of BALB/c mice (irradiated with Co60, 3000 rads) were stimulator cells, the two kinds of cells were mixed with equal volumes.
3. 100 μL mixed cell suspension, 100 μL test sample were added into a 96-well plate; for the control group, 100 μL medium containing 10% serum was added, and single culture controls of the two kinds of cells were set.
4. Incubated in 5% CO2 incubator at 37° C. for 3, 4 or 5 days. 25 μL ^3H dilution (i.e. […] [^3H]-thymidine) was added 1 day before the termination of the incubation.
5. The incubation was terminated, the plate was freezed in a −20° C. refrigerator.
6. The cells were harvested with a cell harvestor ([…]96®, TOMTEC) on a glass fiber film, the incorporation of [^3H]-thymidine in DNA was detected with a liquid scintillation counter (MicroBeta Trilux®, PerkinElmer), which reflected the state of cell proliferation.

IFN-γ = conditions: for production of cytokine IFN-γ: 24 hours
Description: (§5) D. Induction and Detection of Cytokine
(§6) 1. BALB/c mice were killed by cervical dislocation, their spleens were removed aseptically, and a single spleen cell suspension was prepared. After the red blood cells were removed, the cell concentration was adjusted to 5×10^6/mL with RPMI-1640 medium containing 10% FBS.
(§7) 2. 1 mL cell suspension, 0.5 mL test sample and 0.5 mL ConA (final concentration 5 μg/mL) or Sac (Staphylococcus aureus thallus containing staphylococcus protein A) (final concentration 0.01%) were added into […]; for the control group, 0.5 mL medium containing 10% FBS was added, the final volume was 2 mL.
(§8) 3. Incubated in 5% CO2 incubator at 37° C. for 24 or 48 hours, the supernatant was collected and freezed in −20° C. refrigerator, the cytokines was to be detected.
(§9) 4. Production of cytokines was detected with a double antibody sandwich enzyme linked immunosorbent assay (ELISA). TMB was used as substrate of the enzyme reaction, and the OD values was measured with a microplate reader at 450 nm. The production amount of cytokines of the samples was calculated according to the standard curve.

IL-12 = conditions: for production of cytokine IL-12: 24 hours
Description: as §5, §6, §7, §8, §9

IL-2 = conditions: stimulator ConA, 24 hours
Description: as §5, §6, §7, §8, §9

IL-6 = conditions: for production of cytokine IL-6: 24 hours
Description: as §5, §6, §7, §8, §9

TNF-α = conditions: stimulated with PMA; dose dependent
Description: as §5, §6, §7, §8, §9

BALB/c mice [3] = conditions: ear swelling
Description: Each rear paw of BALB/c mice (female, 6-8 weeks old) was sensitized with 20 μL 0.5% DNFB (2,4-dinitrofluorobenzene) on day 0, and was reinforced next day (DNFB was dissolved in an oil agent [acetone:olive oil=4:1]);
Inside and outside of left ear of the mice were challenged with 10 μL 0.4% DNFB at day 7-9;
The test sample was administrated once 1 hour before challenge by i.p. injection or intragastric adminatration. After 12 hours, administered again;
24-48 hours after challenge, each index was measured.
Note: For BALB/c mice (female, 6-8 weeks old), the concentration of sensitizing agent was 0.7%, the concentration of challenging agent was 0.6%.

BALB/c mice [4] = conditions: administered in vivo, BALB/c mice immunized with sheep red blood cells
Description: F. Production of Anti Sheep Red Blood Cell Specific Antibody of Mouse B Cells
Fresh sheep red blood cells (SRBC) were washed 3 times with PBS (pH7.2), and diluted by 1:20;
Fresh serum of guinea pig was diluted by 1:10;
2×10^7/mL of mouse spleen cell suspension was prepared;
Each 1 mL of the above three solutions was mixed and incubated at 37° C. for 1.5 hours, then is centrifuged with 2500 rpm×15 min. OD value was measured at 520 nM.
BALB/c mice were sensitized 3 days after administration: the sheep red blood cells were washed 3 times with saline, and the SRBC pressed volume was diluted by a rate of 5%. Each mouse was intraperitoneally injected with 0.2 mL, and dissected to take its spleen 6 days after sensitization. And the production amount of the antibodies was measured.

SD rats = conditions: intraperitoneally injected
[5] = Lymphocytotoxicity test (MTT); format: cell-based, mouse; conditions: BALB/c, primary spleen cells (splenic mononuclear cells), mouse spleen cells
Description: as §1, §2, §3, §4

[6] = mouse spleen cells, read-out: Lymphocytotoxicity CC50
[7] = mouse spleen cells, ConA, read-out: Inhibiting activity of T lymphocyte proliferation response induced by ConA IC50
[8] = mouse spleen cells, LPS, read-out: Inhibiting activity of B lymphocyte proliferation response induced by LPS IC50
[9] = SM735 10−^5 Mol/L, stimulator LPS
[10] = SM735 10−^5 Mol/L, stimulator PMA + Ion
[11] = SM735 10−^6 Mol/L, stimulator LPS
[12] = SM735 10−^6 Mol/L, stimulator PMA + Ion
[13] = SM735 10−^7 Mol/L, stimulator LPS
[14] = SM735 10−^7 Mol/L, stimulator PMA + Ion

CC1CCC2C(C)C(Oc3cccc(OC(CC(=O)O)C(=O)O)c3)OC3OC4(C)CCC1C32OO4 (stereo not drawn) [compound 3, 3-(12β-artemisininoxy)phenoxy succinic acid]
cytotoxicity CC50 ([1]; BALB/c mouse spleen cells): 27 µg/mL | CC50 ([1]; BALB/c mouse spleen cells, mean ± standard error, read-out: cytotoxicity CC50): 53.1 ± 7.8 µM | CC50 [1, 6]: 52.7 µM | IC50, T lymphocyte proliferation response induced by ConA (T lymphocyte): 0.13 µg/mL (≈ 0.264 µM) | IC50 (T lymphocyte; mean ± standard error, read-out: IC50, proliferation of spleen cells induced by ConA): 0.33 ± 0.06 µM | IC50 (T lymphocyte; [7]): 0.327 µM | IC50, B lymphocyte proliferation response induced by LPS (B lymphocyte): 0.12 µg/mL (≈ 0.244 µM) | IC50 (B lymphocyte; mean ± standard error, read-out: IC50, proliferation of spleen cells induced by LPS): 0.27 ± 0.02 µM | IC50 (B lymphocyte; [8]): 0.265 µM | IC50, proliferation response caused by mixed lymphocyte reaction ([2]; 96 hours): 2.1 µg/mL (≈ 4.26 µM) | IC50 ([2]; read-out: IC50, one way mixed lymphocyte reaction, co-cultured for 96 hours, no unit printed): 0.86 ± 0.18 µM | production of cytokine IFN-γ (IFN-γ; SM735 10−^5 Mol/L, stimulator ConA): 322 ± 18 pg/mL | production of cytokine IFN-γ (IFN-γ; [9]): 103 ± 7 pg/mL | production of cytokine IFN-γ (IFN-γ; [10]): 144 ± 21 pg/mL | production of cytokine IFN-γ (IFN-γ; SM735 10−^6 Mol/L, stimulator ConA): 976 ± 18 pg/mL | production of cytokine IFN-γ (IFN-γ; [11]): 172 ± 2 pg/mL | production of cytokine IFN-γ (IFN-γ; [12]): 557 ± 31 pg/mL | production of cytokine IFN-γ (IFN-γ; SM735 10−^7 Mol/L, stimulator ConA): 1219 ± 33 pg/mL | production of cytokine IFN-γ (IFN-γ; [13]): 207 ± 13 pg/mL | production of cytokine IFN-γ (IFN-γ; [14]): 768 ± 6 pg/mL | production of IFN-γ (result in words) (IFN-γ; activated lymphocytes): inhibited | production of cytokine IL-12 (IL-12; [9]): 292 ± 26 pg/mL | production of cytokine IL-12 (IL-12; [10]): 198 ± 35 pg/mL | production of cytokine IL-12 (IL-12; [11]): 565 ± 18 pg/mL | production of cytokine IL-12 (IL-12; [12]): 487 ± 37 pg/mL | production of cytokine IL-12 (IL-12; [13]): 592 ± 33 pg/mL | production of cytokine IL-12 (IL-12; [14]): 586 ± 52 pg/mL | production of IL-12 (result in words) (IL-12; activated lymphocytes): inhibited | production of cytokine IL-2 (IL-2; SM735 10−^5 Mol/L): 2053 ± 162 pg/mL | production of cytokine IL-2 (IL-2; SM735 10−^6 Mol/L): 2343 ± 154 pg/mL | production of cytokine IL-2 (IL-2; SM735 10−^7 Mol/L): 2250 ± 77 pg/mL | production of cytokine IL-6 (IL-6; [9]): 522 ± 1 pg/mL | production of cytokine IL-6 (IL-6; [10]): 1465 ± 35 pg/mL | production of cytokine IL-6 (IL-6; [11]): 792 ± 42 pg/mL | production of cytokine IL-6 (IL-6; [12]): 2663 ± 52 pg/mL | production of cytokine IL-6 (IL-6; [13]): 840 ± 10 pg/mL | production of cytokine IL-6 (IL-6; [14]): 2886 ± 26 pg/mL | production of IL-6 (result in words) (IL-6; stimulated with PMA, dose dependent): obviously inhibited | production of TNF-α (result in words) (TNF-α): obviously inhibited | DTH reaction induced by DNFB (BALB/c mice [3]): inhibited | antibody and complement production by mouse B cell (antibody forming cell) (BALB/c mice [4]): inhibited | effect in rat adjuvant-induced arthritis animal model (SD rats): certain preventive and therapeutic effect

CC(C(=O)O)c1ccc(OC2OC3OC4(C)CCC5C(C)CCC(C2C)C35OO4)cc1 (stereo not drawn) [compound 22, 2-[4-(12β-artemisininoxy)phenyl] propanoic acid]
CC50 [1, 6]: 59.6 µM | IC50 (T lymphocyte; [7]): 3.6 µM | IC50 (B lymphocyte; [8]): 8.6 µM

C[C@H]1[C@H](OC(=O)CCC(=O)O)O[C@@H]2O[C@@]3(C)CC[C@H]4[C@H](C)CC[C@@H]1[C@@]24OO3 [artesunate, reference compound]
CC50 [1, 6]: 86 µM | IC50 (T lymphocyte; [7]): 3.82 µM

CC1CCC2C(C)C(Oc3ccc(OCC(=O)OCCN(C)C)cc3)OC3OC4(C)CCC1C32OO4 (stereo not drawn) [compound 4, dimethylaminoethyl-[4-(12β-artemisininoxy)phenoxy] acetate]
CC50 [1, 6]: 2.08 µM | IC50 (T lymphocyte; [7]): 1.96 µM | IC50 (B lymphocyte; [8]): 0.0496 µM

CC1CCC2C(C)C(Oc3ccc(CC(=O)O)cc3)OC3OC4(C)CCC1C32OO4 (stereo not drawn) [compound 2, 4-(12β-artemisininoxy)phenyl acetic acid]
CC50 [1, 6]: 100 µM | IC50 (T lymphocyte; [7]): 11.8 µM | IC50 (B lymphocyte; [8]): 10.2 µM

COC(=O)Cc1ccc(OC2OC3OC4(C)CCC5C(C)CCC(C2C)C35OO4)cc1 (stereo not drawn) [compound 1, methyl 4-(12β-artemisininoxy)phenyl acetate]
CC50 [1, 6]: 8 µM | IC50 (T lymphocyte; [7]): 0.713 µM | IC50 (B lymphocyte; [8]): 0.179 µM

C[C@@H]1CC[C@H]2[C@@H](C)C(=O)O[C@@H]3O[C@@]4(C)CC[C@@H]1[C@]32OO4 [artemisinine, artemisinin]
CC50 at 48 h [5]: 28.3 µM | IC50 (T lymphocyte; T-lymphocyte, mouse spleen cells, ConA, read-out: Inhibiting activity of T lymphocyte proliferation response induced by ConA IC50): 4.43 µM | IC50 (B lymphocyte; Lymphocyte, mouse spleen cells, LPS, read-out: Inhibiting activity of B lymphocyte proliferation response induced by LPS IC50): 8.96 µM

COc1ccccc1OC(=O)C(C)Oc1ccc(OC2OC3OC4(C)CCC5C(C)CCC(C2C)C35OO4)cc1 (stereo not drawn) [compound 26, o-methoxy-phenyl 2-[4-(12β-artemisininoxy)phenoxy] propionate]
CC50 [1, 6]: 39.1 µM | IC50 (T lymphocyte; [7]): 2.33 µM | IC50 (B lymphocyte; [8]): 0.27 µM

— US7910750B2, “Artemisinin (qinghaosu) derivatives, their preparation methods and their use, and pharmaceutical compositions containing the same” (Shanghai Institute of Materia Medica, Chinese Academy of …, priority 2005, dated 2011)
